≈ marks a conversion by molar mass, not a printed value. Counter-ions that a name gives are not always drawn.
How the values were obtained:
[1] = Octanol-water partition coefficient (method of Fujita et al.); conditions: pH 7.4
Determination of LD50 = conditions: mouse, in vivo; Balb/c female mice 3-5 months of age; ip (or iv) injection in physiological saline
Procedure: LD50 is determined in BALB/c female mice (weighing 20-25 g) following intraperitoneal (ip) injection, unless the compound tested has low lipophilicity and is very soluble, wherein intravenous (iv) administration is used. LD50 values at 1, 2, 5, and 60 days are determined by administering graded doses of the drug dissolved in physiological saline immediately prior to injection.

physchem [2] = conditions: pH 7.4
physchem [3] = assay: physchem

Structure (SMILES)	solubility (Solubility) [mM]	logP ([1]; octanol/water)	LD50 (Determination of LD50) [µmol/kg]	logP [1]	logP (physchem [2])	solubility (physchem [3]) [mM]
Nc1n[n+]([O-])c2cc([N+](=O)[O-])ccc2[n+]1[O-] [Compound 14, 7-nitro-3-amino-1,2,4-benzotriazine 1,4-dioxide]	2 (≈ 446 µg/mL)	-0.97	1000			
CCN(CC)CCNc1n[n+]([O-])c2cc([N+](=O)[O-])ccc2[n+]1[O-] [Compound 21, 7-nitro-3-(2-N,N-diethylaminoethylamino)-1,2,4-benzotriazine 1,4-dioxide hydrochloride]				-0.2		
Nc1n[n+]([O-])c2ccccc2[n+]1[O-] [Compound 22]			500		-0.32	13.5 (≈ 2410 µg/mL)

Reference: patent EP0478545B1, “1,2,4-BENZOTRIAZINE OXIDES AS RADIOSENSITIZERS AND SELECTIVE CYTOTOXIC AGENTS” (SRI INTERNATIONAL, priority 1989, dated 1991)
